One may read the IC50 as the concentration at which inhibition is half-maximal. By EC50 is commonly meant the midpoint of the concentration-response curve.

One test deals with PRMT5/MEP50 complex (Homo sapiens, UniProt O14744). The experiment in a line: Inhibition of recombinant human fetal brain FLAG-tagged PRMT5/full length human testis 6His-tagged MEP50 expressed in baculovirus infected insect Sf9 cells using human histone H4 (1 to 15 residues) as substrate preincubated for 30 mins followed by [3H]-SAM addition.
Sequence of PRMT5/MEP50 complex (O14744 whole entry, the tested form may be a part): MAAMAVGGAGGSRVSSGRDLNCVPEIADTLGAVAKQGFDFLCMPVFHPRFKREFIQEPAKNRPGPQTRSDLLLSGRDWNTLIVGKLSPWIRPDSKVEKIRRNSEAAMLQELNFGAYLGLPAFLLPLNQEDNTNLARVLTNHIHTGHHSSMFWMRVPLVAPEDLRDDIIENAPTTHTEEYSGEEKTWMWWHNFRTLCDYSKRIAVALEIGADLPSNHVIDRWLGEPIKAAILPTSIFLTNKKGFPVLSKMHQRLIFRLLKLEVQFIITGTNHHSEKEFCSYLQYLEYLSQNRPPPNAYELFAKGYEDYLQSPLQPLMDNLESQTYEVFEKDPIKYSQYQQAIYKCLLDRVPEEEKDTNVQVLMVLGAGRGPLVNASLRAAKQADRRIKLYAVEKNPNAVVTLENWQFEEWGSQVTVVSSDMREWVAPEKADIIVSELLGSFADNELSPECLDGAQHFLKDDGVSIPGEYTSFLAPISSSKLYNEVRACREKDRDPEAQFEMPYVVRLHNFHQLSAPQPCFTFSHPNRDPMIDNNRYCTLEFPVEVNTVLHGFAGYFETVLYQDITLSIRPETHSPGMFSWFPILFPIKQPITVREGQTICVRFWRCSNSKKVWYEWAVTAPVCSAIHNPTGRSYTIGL
Sequence of PRMT5/MEP50 complex (Q9BQA1 whole entry, further chain, the tested form may be a part): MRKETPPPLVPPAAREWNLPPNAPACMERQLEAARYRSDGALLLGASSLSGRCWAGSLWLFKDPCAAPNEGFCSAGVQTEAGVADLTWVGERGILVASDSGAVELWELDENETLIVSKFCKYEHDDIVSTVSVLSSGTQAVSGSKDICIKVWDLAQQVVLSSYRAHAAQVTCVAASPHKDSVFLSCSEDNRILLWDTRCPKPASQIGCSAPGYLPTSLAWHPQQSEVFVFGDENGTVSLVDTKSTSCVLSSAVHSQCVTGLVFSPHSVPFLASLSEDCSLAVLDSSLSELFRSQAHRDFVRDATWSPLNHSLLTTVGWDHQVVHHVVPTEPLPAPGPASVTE
Test [1] deals with Protein arginine N-methyltransferase 5 (Homo sapiens, UniProt O14744). Briefly: Inhibition of PRMT5 in human Z138 cells assessed as decrease in di-methyl arginine levels after 96 hrs by Western blot method. The class given is cell-based.
Sequence of Protein arginine N-methyltransferase 5 (O14744 whole entry): as the sequence (O14744 whole entry, the tested form may be a part) above
Test [2] is described as follows: Antiproliferative activity against human Z138 cells assessed as inhibition of cell viability after 5 days by Cell-Titer Glo assay. The class given is functional, cell-based. Conditions: Z-138, 120 h.

`CN1CCN(Cc2cccc(C(=O)NCC(O)CN3CCc4ccccc4C3)c2)CC1` (stereo not given): at PRMT5/MEP50 complex, the IC50 is less than 100 nM. Also, the EC50 in test [1] lay within 101 to 1000 nM; in test [2] it was 1000 to 10000 nM.

As to `O=C(NCC(O)CN1CCc2ccccc2C1)c1cccc(C2CCNC2)c1` (stereo not given), at PRMT5/MEP50 complex, the IC50 was less than 100 nM. Further, the EC50 was 101 to 1000 nM in test [1] and greater than 20000 nM in test [2].

In the case of `OC(COc1cccc(-c2cc(C(F)(F)F)ccc2Cl)c1)CN1CCc2ccccc2C1` (stereo not given), the IC50 at PRMT5/MEP50 complex lay within 101 to 1000 nM. The EC50 in test [1] lay in the range of 1000 to 10000 nM; in test [2], 10000 to 40000 nM.

With `O=C1CN(c2cccc3cccnc23)CCN1CC(O)CN1CCc2ccccc2C1` (stereo not given), on PRMT5/MEP50 complex, the half-inhibitory concentration (IC50) was less than 100 nM. Also, the EC50 was 101 to 1000 nM in test [1] and 1000 to 10000 nM in test [2].

Turning to `O=C1COc2ccccc2N1CC(O)CN1CCc2ccccc2C1` (stereo not given), the IC50 at PRMT5/MEP50 complex was in the range of 101 to 1000 nM. The EC50 in test [1] is 101 to 1000 nM; in test [2] it was greater than 20000 nM.

Consider `CS(=O)(=O)Nc1ccc(C(=O)NCC(O)CN2CCc3ccccc3C2)cc1` (stereo not given), for which, at PRMT5/MEP50 complex, the IC50 lay in the range of 101 to 1000 nM. The values for the EC50 in test [1] and in test [2] were 101 to 1000 nM and 10000 to 50000 nM, respectively.

Take `Cn1cnc2cc(-c3cccc(OCC(O)CN4CCc5ccccc5C4)c3)ccc21` (stereo not given): the 50% inhibitory concentration (IC50) on PRMT5/MEP50 complex lay in the range of 101 to 1000 nM. For the same compound, the EC50 in test [1] is 101 to 1000 nM; in test [2], 10000 to 40000 nM.

With `O=C(NCC(O)CN1CCc2ccccc2C1)c1cccc(CN2CCNCC2)c1` (stereo not given), the IC50 at PRMT5/MEP50 complex is less than 100 nM. For the same compound, the EC50 in test [1] fell in the range of 101 to 1000 nM; in test [2] it was 1000 to 10000 nM.

For the compound `CNCCOc1cccc(C(=O)NCC(O)CN2CCc3ccccc3C2)c1` (stereo not given), at PRMT5/MEP50 complex, the IC50 lay within 101 to 1000 nM. For the same compound, the EC50 in test [1] is 1000 to 10000 nM; in test [2] it was greater than 20000 nM.

In the case of `O=C1CN(c2ccccc2Cl)CCN1CC(O)CN1CCc2ccccc2C1` (stereo not given), at PRMT5/MEP50 complex, the IC50 fell in the range of 101 to 1000 nM. Besides, the EC50 is 101 to 1000 nM in test [1] and 10000 to 50000 nM in test [2].

In the case of `O=C1CN(c2cncc(N3CCOCC3)c2)CCN1CC(O)CN1CCc2ccccc2C1` (stereo not given), the IC50 on PRMT5/MEP50 complex is less than 100 nM. Also, the EC50 in test [1] lay in the range of 101 to 1000 nM; in test [2], 1000 to 10000 nM.

Regarding `CN(C)c1ccccc1N1CCN(C[C@H](O)CN2CCc3ccccc3C2)C(=O)C1`, at PRMT5/MEP50 complex, the IC50 was in the range of 101 to 1000 nM. The results for the EC50 in test [1] and in test [2] were 101 to 1000 nM and 10000 to 50000 nM, respectively.

As for `O=C1Cc2ccccc2N1CC(O)CN1CCc2ccccc2C1` (stereo not given), the half-inhibitory concentration (IC50) on PRMT5/MEP50 complex lay in the range of 101 to 1000 nM. Further, the values for the EC50 in test [1] and in test [2] were 101 to 1000 nM and greater than 20000 nM, respectively.

Take `OC(COc1ccc(C2CCCNC2)cc1)CN1CCc2ccccc2C1` (stereo not given): the IC50 at PRMT5/MEP50 complex is less than 100 nM. Moreover, the values for the EC50 in test [1] and in test [2] were 101 to 1000 nM and 1000 to 10000 nM, respectively.

Consider `Cc1ccc(N2CCN(CC(O)CN3CCc4ccccc4C3)C(=O)C2)cc1` (stereo not given), for which the IC50 at PRMT5/MEP50 complex lay within 101 to 1000 nM. Moreover, the EC50 was 101 to 1000 nM in test [1] and greater than 20000 nM in test [2].

Turning to `CC(=O)Nc1cccc(C(=O)NCC(O)CN2CCc3ccccc3C2)c1` (stereo not given), the IC50 on PRMT5/MEP50 complex lay in the range of 101 to 1000 nM. Moreover, the EC50 in test [1] was 101 to 1000 nM; in test [2] it was 10000 to 50000 nM.

As for `CN1CCN(c2cccc(C(=O)NCC(O)CN3CCc4ccccc4C3)c2)CC1` (stereo not given), the IC50 at PRMT5/MEP50 complex is less than 100 nM. For the same compound, the EC50 is 101 to 1000 nM in test [1] and 10000 to 50000 nM in test [2].

As to `OC(CNc1cccc(CNC2CCCC2)c1)CN1CCc2ccccc2C1` (stereo not given), the IC50 on PRMT5/MEP50 complex fell in the range of 101 to 1000 nM. Moreover, the results for the EC50 in test [1] and in test [2] were 1000 to 10000 nM and greater than 20000 nM, respectively.

With `O=C1CN(c2cccc(F)c2)CCN1CC(O)CN1CCc2ccccc2C1` (stereo not given), the IC50 on PRMT5/MEP50 complex is less than 100 nM. Further, the results for the EC50 in test [1] and in test [2] were 101 to 1000 nM and greater than 20000 nM, respectively.

For the compound `CC(Oc1cccc(CNC2CCCC2)c1)C(O)CN1CCc2ccccc2C1` (stereo not given), the IC50 on PRMT5/MEP50 complex is 101 to 1000 nM. Moreover, the EC50 in test [1] lay in the range of 101 to 1000 nM; in test [2], 1000 to 10000 nM.

For `CN1CCC(c2cccc(C(=O)NCC(O)CN3CCc4ccccc4C3)c2)C1` (stereo not given), the IC50 at PRMT5/MEP50 complex was less than 100 nM. Also, the EC50 was in the range of 101 to 1000 nM in test [1] and 10000 to 50000 nM in test [2].

Consider `COC(COc1cccc(CNC2CCCC2)c1)CN1CCc2ccccc2C1` (stereo not given), for which the IC50 on PRMT5/MEP50 complex is 1000 to 10000 nM. Also, the 50% effective concentration (EC50) in test [1] was greater than 20000 nM; in test [2] it was greater than 40000 nM.

In the case of `NS(=O)(=O)c1cccc(C(=O)NCC(O)CN2CCc3ccccc3C2)c1` (stereo not given), the IC50 at PRMT5/MEP50 complex is 101 to 1000 nM. The results for the EC50 in test [1] and in test [2] were 101 to 1000 nM and greater than 20000 nM, respectively.

Consider `CCN(c1cccc(C(=O)NCC(O)CN2CCc3ccccc3C2)c1C)C1CCOCC1` (stereo not given), for which the half-maximal inhibitory concentration (IC50) on PRMT5/MEP50 complex is less than 100 nM. Besides, the EC50 in test [1] is less than 100 nM; in test [2], 1000 to 10000 nM.

`Cc1c(NC2CCOCC2)cccc1C(=O)NCC(O)CN1CCc2ccccc2C1` (stereo not given): the IC50 at PRMT5/MEP50 complex is less than 100 nM. The EC50 in test [1] is less than 100 nM; in test [2] it was 1000 to 10000 nM.

For `O=C1CN(c2ccc(Cl)cc2)CCN1CC(O)CN1CCc2ccccc2C1` (stereo not given), the IC50 at PRMT5/MEP50 complex was less than 100 nM. The EC50 lay within 101 to 1000 nM in test [1] and 10000 to 50000 nM in test [2].

`OC(COc1cccc(-c2ccc3cn[nH]c3c2)c1)CN1CCc2ccccc2C1` (stereo not given): the IC50 on PRMT5/MEP50 complex lay within 101 to 1000 nM. The figures for the EC50 in test [1] and in test [2] were 1000 to 10000 nM and 10000 to 40000 nM, respectively.

As to `OC(COc1cccc(-c2ccc3c(c2)OCO3)c1)CN1CCc2ccccc2C1` (stereo not given), the IC50 on PRMT5/MEP50 complex was in the range of 101 to 1000 nM. Moreover, the EC50 in test [1] and in test [2] was 10000 to 40000 nM in each case.

Turning to `OC(COc1cccc(-c2ccccc2)c1)CN1CCc2ccccc2C1` (stereo not given), at PRMT5/MEP50 complex, the IC50 is 101 to 1000 nM. The results for the EC50 in test [1] and in test [2] were 1000 to 10000 nM and greater than 20000 nM, respectively.

On to `CN(CC(O)CN1CCc2ccccc2C1)c1cccc(CNC2CCCC2)c1` (stereo not given), for which the IC50 at PRMT5/MEP50 complex fell in the range of 101 to 1000 nM. Also, the values for the EC50 in test [1] and in test [2] were 101 to 1000 nM and 10000 to 40000 nM, respectively.

Consider `CN1CCCC1c1cccc(C(=O)NCC(O)CN2CCc3ccccc3C2)c1` (stereo not given), for which, on PRMT5/MEP50 complex, the IC50 is less than 100 nM. Moreover, the EC50 fell in the range of 101 to 1000 nM in test [1] and 10000 to 50000 nM in test [2].

Take `Cn1cnc2ccc(-c3cccc(OCC(O)CN4CCc5ccccc5C4)c3)cc21` (stereo not given): the IC50 at PRMT5/MEP50 complex is less than 100 nM. The EC50 in test [1] fell in the range of 101 to 10000 nM; in test [2], 1000 to 20000 nM.

`O=C(NCC(O)CN1CCc2ccccc2C1)c1cccc(N2CCNCC2)c1` (stereo not given): the IC50 at PRMT5/MEP50 complex is less than 100 nM. For the same compound, the EC50 is 101 to 1000 nM in test [1] and 10000 to 50000 nM in test [2].

Consider `CN(C)CCOc1cccc(C(=O)NCC(O)CN2CCc3ccccc3C2)c1` (stereo not given), for which the IC50 at PRMT5/MEP50 complex was less than 100 nM. Moreover, the EC50 fell in the range of 101 to 1000 nM in test [1] and 10000 to 50000 nM in test [2].

Turning to `O=c1cc(Nc2ccccc2)ccn1C[C@@H](O)CN1CCc2ccccc2C1`, the IC50 on PRMT5/MEP50 complex lay within 101 to 1000 nM. The values for the EC50 in test [1] and in test [2] were 101 to 1000 nM and greater than 20000 nM, respectively.

Regarding `O=C1CN(c2cccc(N3CCOCC3)c2)CCN1CC(O)CN1CCc2ccccc2C1` (stereo not given), at PRMT5/MEP50 complex, the IC50 was less than 100 nM. Besides, the EC50 in test [1] was less than 100 nM; in test [2], 1000 to 10000 nM.

Regarding `NC(=O)c1cccc(C(=O)NCC(O)CN2CCc3ccccc3C2)c1` (stereo not given), the IC50 on PRMT5/MEP50 complex lay within 101 to 1000 nM. Besides, the EC50 is 1000 to 10000 nM in test [1] and greater than 20000 nM in test [2].

Take `O=C(NC[C@@H](O)CN1CCc2ccccc2C1)c1cccc(NC2CCOCC2)c1`: the IC50 on PRMT5/MEP50 complex lay within 101 to 1000 nM. In addition, the EC50 in test [1] fell in the range of 101 to 1000 nM; in test [2], 1000 to 10000 nM.

As for `O=C(NCC(O)CN1CCc2ccccc2C1)c1cccc(C2CCCN2)c1` (stereo not given), at PRMT5/MEP50 complex, the IC50 lay in the range of 101 to 1000 nM. Also, the EC50 in test [1] is 1000 to 10000 nM; in test [2], greater than 20000 nM.

Turning to `O=C(c1ccc(Cn2nccc2-c2ccc(OCC(O)CN3CCc4ccccc4C3)cc2)cc1)N1CCCC1` (stereo not given), at PRMT5/MEP50 complex, the IC50 was 101 to 1000 nM. The EC50 is 1000 to 10000 nM in test [1] and 10000 to 40000 nM in test [2].

The values are drawn from ChEMBL document CHEMBL3879915, “Methods of inhibiting PRMT5” (2014).
